# Assay results reported in ChEMBL document CHEMBL4052712, “Design and optimization of highly-selective, broad spectrum fungal CYP51 inhibitors” (Bioorg Med Chem Lett, 2017).
# Experiments:
# Cryptococcus neoformans = assay: Inhibition of CYP51 in Cryptococcus neoformans assessed as inhibition of microbe growth incubated for 48 hrs by CLSI M27-A3 guideline based method
# [1] = target: Lanosterol 14-alpha demethylase (Candida glabrata (strain ATCC 2001 / BCRC 20586 / JCM 3761 / NBRC 0622 /NRRL Y-65 / CBS 138) (Yeast) (Nakaseomyces glabratus)) (UniProt P50859); assay: Inhibition of CYP51 in Candida glabrata assessed as inhibition of microbe growth incubated for 48 hrs by CLSI M27-A3 guideline based method
# [2] = target: T1, Lanosterol 14-alpha demethylase (Trichophyton rubrum (strain ATCC MYA-4607 / CBS 118892) (Athlete'sfoot fungus)) (UniProt F2SHH3); assay: Inhibition of CYP51 in Trichophyton rubrum assessed as inhibition of microbe growth incubated for 48 hrs by CLSI M27-A3 guideline based method
# T1 sequence (whole entry): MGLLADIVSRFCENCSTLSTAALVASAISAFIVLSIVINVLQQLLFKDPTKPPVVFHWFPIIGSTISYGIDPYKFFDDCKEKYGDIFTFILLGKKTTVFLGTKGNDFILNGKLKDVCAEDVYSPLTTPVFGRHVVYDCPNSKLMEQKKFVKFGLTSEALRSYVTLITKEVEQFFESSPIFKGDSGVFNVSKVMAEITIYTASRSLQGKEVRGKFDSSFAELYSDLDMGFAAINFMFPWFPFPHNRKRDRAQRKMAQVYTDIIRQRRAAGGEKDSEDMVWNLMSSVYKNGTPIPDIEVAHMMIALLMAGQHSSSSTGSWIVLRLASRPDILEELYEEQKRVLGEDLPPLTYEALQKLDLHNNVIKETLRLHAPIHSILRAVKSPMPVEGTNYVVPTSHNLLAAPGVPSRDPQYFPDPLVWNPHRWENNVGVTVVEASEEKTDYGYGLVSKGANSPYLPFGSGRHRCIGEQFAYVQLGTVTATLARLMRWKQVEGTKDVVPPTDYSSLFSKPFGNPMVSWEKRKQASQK
# [3] = target: T2, Lanosterol 14-alpha demethylase (Aspergillus) (UniProt B8NUK6+Q9P8R0+G4WW85); assay: Inhibition of CYP51 in Aspergillus flavus assessed as inhibition of microbe growth incubated for 48 to 168 hrs by CLSI M27-A3 guideline based method
# [4] = target: T2, Lanosterol 14-alpha demethylase (Aspergillus); assay: Inhibition of CYP51 in Aspergillus fumigatus assessed as inhibition of microbe growth incubated for 48 to 168 hrs by CLSI M27-A3 guideline based method
# [5] = target: T3, Cytochrome P450 11B2, mitochondrial (Homo sapiens, UniProt P19099); assay: Inhibition of CYP11B2 in human hepatocyte microsomes using deoxycorticosteroid substrate by HPLC/MS/MS method; format: ADME
# T3 sequence (P19099 whole entry): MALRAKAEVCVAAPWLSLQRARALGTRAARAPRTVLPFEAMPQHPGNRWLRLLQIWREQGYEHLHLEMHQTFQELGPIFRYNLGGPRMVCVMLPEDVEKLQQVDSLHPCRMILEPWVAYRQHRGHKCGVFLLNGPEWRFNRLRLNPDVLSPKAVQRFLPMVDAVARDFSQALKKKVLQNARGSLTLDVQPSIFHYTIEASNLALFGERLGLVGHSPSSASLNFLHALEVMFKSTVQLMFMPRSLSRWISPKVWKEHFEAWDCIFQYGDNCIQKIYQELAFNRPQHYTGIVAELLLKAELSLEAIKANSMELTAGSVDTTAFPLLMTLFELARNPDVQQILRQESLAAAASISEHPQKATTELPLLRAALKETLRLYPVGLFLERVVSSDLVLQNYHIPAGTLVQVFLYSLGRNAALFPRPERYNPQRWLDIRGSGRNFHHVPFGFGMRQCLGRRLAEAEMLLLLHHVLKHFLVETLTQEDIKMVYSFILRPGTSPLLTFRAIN
# [6] = target: T4, Steroid 17-alpha-hydroxylase/17,20 lyase (Homo sapiens, UniProt P05093); assay: Inhibition of CYP17 hydroxylase in human hepatocyte microsomes using pregnenolone substrate by HPLC/MS/MS method; format: ADME
# T4 sequence (P05093 whole entry): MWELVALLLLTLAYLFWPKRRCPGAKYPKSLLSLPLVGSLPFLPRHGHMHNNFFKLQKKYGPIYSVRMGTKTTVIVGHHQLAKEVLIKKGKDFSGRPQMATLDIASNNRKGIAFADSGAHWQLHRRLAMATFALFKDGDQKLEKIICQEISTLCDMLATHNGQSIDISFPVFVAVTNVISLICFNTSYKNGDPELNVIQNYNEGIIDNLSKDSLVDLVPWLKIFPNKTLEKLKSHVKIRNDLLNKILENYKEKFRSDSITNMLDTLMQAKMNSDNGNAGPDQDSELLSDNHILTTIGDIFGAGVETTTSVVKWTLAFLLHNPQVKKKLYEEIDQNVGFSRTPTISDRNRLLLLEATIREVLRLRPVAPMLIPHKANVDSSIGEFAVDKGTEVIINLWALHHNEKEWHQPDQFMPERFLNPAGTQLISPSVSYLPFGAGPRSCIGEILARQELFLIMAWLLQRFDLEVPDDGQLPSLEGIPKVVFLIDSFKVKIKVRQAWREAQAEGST
# [7] = target: T4, Steroid 17-alpha-hydroxylase/17,20 lyase; assay: Inhibition of CYP17 lyase in human hepatocyte microsomes using 17a-hydroxypregnenolone substrate by HPLC/MS/MS method; format: ADME
# Aromatase = target: T5, Aromatase (Homo sapiens, UniProt P11511); assay: Inhibition of CYP19 in human hepatocyte microsomes using testosterone substrate by HPLC/MS/MS method; format: ADME
# T5 sequence (P11511 whole entry): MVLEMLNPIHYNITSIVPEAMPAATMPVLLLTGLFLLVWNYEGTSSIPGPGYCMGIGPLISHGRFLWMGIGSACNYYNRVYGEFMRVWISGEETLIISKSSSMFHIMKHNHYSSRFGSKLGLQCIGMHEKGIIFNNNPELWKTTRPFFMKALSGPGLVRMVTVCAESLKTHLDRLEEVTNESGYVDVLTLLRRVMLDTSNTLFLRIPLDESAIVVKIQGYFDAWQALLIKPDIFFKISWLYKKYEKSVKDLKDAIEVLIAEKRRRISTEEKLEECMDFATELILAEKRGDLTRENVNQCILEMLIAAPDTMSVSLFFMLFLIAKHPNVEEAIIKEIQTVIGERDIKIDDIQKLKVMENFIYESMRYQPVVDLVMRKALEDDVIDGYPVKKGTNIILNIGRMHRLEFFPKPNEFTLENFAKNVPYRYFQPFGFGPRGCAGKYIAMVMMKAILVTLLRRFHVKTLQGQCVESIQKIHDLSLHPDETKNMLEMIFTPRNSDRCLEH
# [8] = target: Lanosterol 14-alpha demethylase (Candida albicans (strain SC5314 / ATCC MYA-2876) (Yeast), UniProt P10613); assay: Inhibition of CYP51 in Candida albicans assessed as inhibition of microbe growth incubated for 48 hrs by CLSI M27-A3 guideline based method
# [9] = target: T6, Cytochrome P450 11B1, mitochondrial (Homo sapiens, UniProt P15538); assay: Inhibition of CYP11B1 in human hepatocyte microsomes using deoxycortisol substrate by HPLC/MS/MS method; format: ADME
# T6 sequence (P15538 whole entry): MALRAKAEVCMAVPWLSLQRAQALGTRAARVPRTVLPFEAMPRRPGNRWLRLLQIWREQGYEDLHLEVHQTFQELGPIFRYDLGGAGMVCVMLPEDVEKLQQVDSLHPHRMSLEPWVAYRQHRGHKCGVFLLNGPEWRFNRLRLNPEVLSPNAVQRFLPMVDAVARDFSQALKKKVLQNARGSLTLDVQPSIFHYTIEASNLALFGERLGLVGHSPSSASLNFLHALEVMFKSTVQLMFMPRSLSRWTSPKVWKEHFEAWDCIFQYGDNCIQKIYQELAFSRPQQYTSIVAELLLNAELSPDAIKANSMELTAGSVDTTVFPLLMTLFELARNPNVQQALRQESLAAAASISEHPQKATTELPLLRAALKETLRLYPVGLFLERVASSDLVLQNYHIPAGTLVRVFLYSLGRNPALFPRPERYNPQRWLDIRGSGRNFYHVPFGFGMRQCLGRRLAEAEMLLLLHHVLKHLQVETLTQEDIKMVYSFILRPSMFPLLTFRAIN
# Sequence of Lanosterol 14-alpha demethylase (Candida glabrata (strain ATCC 2001 / BCRC 20586 / JCM 3761 / NBRC 0622 /NRRL Y-65 / CBS 138) (Yeast) (Nakaseomyces glabratus)) (P50859 whole entry): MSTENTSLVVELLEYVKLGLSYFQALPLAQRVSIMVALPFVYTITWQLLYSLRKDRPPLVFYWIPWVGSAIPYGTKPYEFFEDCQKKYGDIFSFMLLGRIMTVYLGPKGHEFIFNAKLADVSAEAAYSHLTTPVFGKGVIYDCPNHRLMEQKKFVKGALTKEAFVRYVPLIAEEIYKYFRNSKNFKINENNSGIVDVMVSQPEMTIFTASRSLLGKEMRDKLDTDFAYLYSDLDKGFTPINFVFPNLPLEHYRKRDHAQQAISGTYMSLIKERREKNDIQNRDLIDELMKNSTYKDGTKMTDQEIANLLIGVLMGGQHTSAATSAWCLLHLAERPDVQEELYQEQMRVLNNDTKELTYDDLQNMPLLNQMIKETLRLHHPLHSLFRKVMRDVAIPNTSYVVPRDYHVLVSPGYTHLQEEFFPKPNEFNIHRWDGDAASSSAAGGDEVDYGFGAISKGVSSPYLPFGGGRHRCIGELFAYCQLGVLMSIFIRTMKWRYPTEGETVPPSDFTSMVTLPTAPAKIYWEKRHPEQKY
# Sequence of Lanosterol 14-alpha demethylase (P10613 whole entry): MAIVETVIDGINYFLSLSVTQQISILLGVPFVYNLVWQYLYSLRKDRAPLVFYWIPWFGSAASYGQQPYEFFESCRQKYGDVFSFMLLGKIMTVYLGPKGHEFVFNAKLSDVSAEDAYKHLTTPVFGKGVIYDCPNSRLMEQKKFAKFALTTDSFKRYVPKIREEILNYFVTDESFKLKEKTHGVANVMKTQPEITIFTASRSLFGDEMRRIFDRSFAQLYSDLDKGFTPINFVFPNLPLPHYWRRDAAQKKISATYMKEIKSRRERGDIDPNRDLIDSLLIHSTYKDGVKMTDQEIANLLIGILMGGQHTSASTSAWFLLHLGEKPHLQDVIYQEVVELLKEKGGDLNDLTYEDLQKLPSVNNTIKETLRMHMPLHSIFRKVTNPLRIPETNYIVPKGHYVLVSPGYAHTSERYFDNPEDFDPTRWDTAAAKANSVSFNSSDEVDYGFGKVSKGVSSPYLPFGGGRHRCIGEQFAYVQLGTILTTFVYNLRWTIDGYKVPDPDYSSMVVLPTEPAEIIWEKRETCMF
SMILES,MIC50 (Cryptococcus neoformans) [µg/mL],MIC50 [1] [µg/mL],MIC50 [2] [µg/mL],MIC100 [3] [µg/mL],MIC100 [4] [µg/mL],IC50 [5] [µM],IC50 [6] [µM],IC50 [7] [µM],IC50 (Aromatase) [µM],MIC50 [8] [µg/mL],IC50 [9] [µM]
"N#Cc1ccc(COc2ccc(C#Cc3ccc(C(F)(F)C(O)(Cn4cnnn4)c4ccc(F)cc4F)nc3)cc2)cc1 (single isomer, unassigned; (+))",0.0019,0.12,0.25,0.5,0.25,,,,,,
OC(Cn1cncn1)(Cn1cncn1)c1ccc(F)cc1F [FLUCONAZOLE],0.25,8,16,> 64,> 64,13,> 200,> 200,22,0.5,30
CC[C@@H]([C@H](C)O)n1ncn(-c2ccc(N3CCN(c4ccc(OC[C@@H]5CO[C@@](Cn6cncn6)(c6ccc(F)cc6F)C5)cc4)CC3)cc2)c1=O [POSACONAZOLE],0.0078,0.12,0.25,0.25,0.062,0.021,1.8,0.042,8.4,0.015,0.31
